Measurements as given in patent US6455593B1, “Method of dynamic retardation of cell cycle kinetics to potentiate cell damage” (priority 1995, dated 2002).

System: human promonocytic lymphoma cells (U937)
Assay: Microculture indicator system (MIS), MTT growth inhibition assay with bivariate serial dilutions
Type: cell-based
Details: for Combined results ratio / Growth inhibition (MTT): STSP 17 H, dGuo 0 H, STSP nM by row: r7 100, r8 50, r9 25, r10 12.5, r11 6.25, r12 3.13, r13-r14 0
Description: Microcultures of human promonocytic lymphoma cells (U937) (“the U937 cells”) originally obtained from the American Type Culture Collection (CRL 1593) and later grown by Dr. K. Zoon at the FDA in Bethesda, Md. were set up in a multiwell plate with serial two-fold dilutions of dThd in tissue culture growth medium (RPMI 1640 plus 10% Nurserum and antibiotics). The volume of medium per well was 100 μl and the cell number per well was about 1×10^5. The plate was incubated at 37° C. for 24 hr.
A dye, 3-[4,5-dimethylthiazol-2-yl]-2,5-diphenyl-tetrazolium bromide (MTT), was used as a chromogenic indicator of the metabolically active cell mass. Viable cells metabolize the dye and accumulate a reduced formazan product (blue color) which is solubilized for colorimetry. Mossman T, J. Immunol. Methods 5:55-63 (1983); Li L and Lau B H S, In Vitro Cell Dev. Biol. 29A:531-536 (1993). The MTT assay has been established as useful for measuring either growth inhibition or population killing. Plowman, supra. The MTT method is ideal for cells tested in suspension growth, and can also be used for some cells growing in monolayers. […] Alley, supra; Hofs, supra; Wilson J K et al., Br. J. Cancer 62:189-94 (1990); Plowman, supra.
Thirty μl of 0.5% MTT in phosphate buffered saline was added to each microculture well at the appropriate time. After incubation at 37° C. for 3 hr, 120 μl of an aqueous solution of 10 % SDS with 0.01 N HCl was added to release and dissolve formazan product. This was accomplished by overnight incubation of the plate at 37° C. After careful mixing of the microwell contents by placing the plates on an orbital shaker for 5 minutes the absorbencies were quantitated by spectrophotometry at 570 nm with a Ceres UV 900 HDI microwell plate reader (from Biotek Instruments Inc, Winooski, Vt. 05404-0998). Absorbance data was normalized to a blank well containing all reagents without cells and was collected semi-automatically.
Flat-bottom 96-well plates of tissue culture quality (Corning or Costar) were set up with two-fold serial dilutions of each agent to be tested, e.g., the RA and TCI, using a multichannel pipettor with adjustable volume, e.g., Costar or Rainin, to perform serial mixing. This set-up is diagrammed in FIG. 12. […] In each plate, a total of 59 wells then contained bivariate agent combinations, the bivariate serial dilutions.
Agents were serially diluted by serial mixing in two separate plates or series of wells, and then were combined prior to addition of a fixed volume and density of the U937 cells in a suspension calculated to deliver about 1×10^5 cells per well.
Cells were added after serial dilutions of the dThd had been dispensed. Cells were dispensed at about 10×10^4 cells per microwell to provide optimal sensitivity of detection of cell damage in subsequent calorimetric assays. […] The final volume of medium was 100 μl/well. The plates were further incubated at 37° C. for a total duration of 18-24 h. The dye MTT was used as a chromogenic indicator of the residual and metabolically active cell mass. (Described in Example 1).
In this MTT assay, normalized absorbance data was collected semi-automatically from each microculture well with a Ceres UV 900 HD1 plate reader, from Biotek Instruments Inc., Winooski, V T 05404-0998, stored in an EIA file under the Ceres 900 program, transferred in comma delimited format to a floppy diskette, and imported into a spread sheet program (Borland Quattro Pro) for data manipulations.

[1] = U937, total 17 H, dGuo 0.01 mM (ninth dilution, c19)
[2] = U937, total 17 H, dGuo 0.01 mM (tenth dilution, c21)

Nc1nc2c(ncn2[C@H]2C[C@H](O)[C@@H](CO)O2)c(=O)[nH]1 [dGuo]
Combined results ratio (CRR), dGuo 0.02 mM (U937, dGuo 0.02 mM for 0 H, STSP for 17 H, total 17 H, STSP nM: 100,50,25,12.5,6.25,3.13, r13 dGuo alone): 1.0 | Growth inhibition (MTT), dGuo 0.02 mM (U937, dGuo 0.02 mM for 0 H, STSP for 17 H, total 17 H, STSP nM: 100,50,25,12.5,6.25,3.13, r14 dGuo alone): 10% | Combined results ratio (CRR), dGuo 0.06 mM (U937, dGuo 0.06 mM for 0 H, STSP for 17 H, total 17 H, STSP nM: 100,50,25,12.5,6.25,3.13, r13 dGuo alone): 1.0 | Growth inhibition (MTT), dGuo 0.06 mM (U937, dGuo 0.06 mM for 0 H, STSP for 17 H, total 17 H, STSP nM: 100,50,25,12.5,6.25,3.13, r14 dGuo alone): 25% | Combined results ratio (CRR), dGuo 0.09 mM (U937, dGuo 0.09 mM for 0 H, STSP for 17 H, total 17 H, STSP nM: 100,50,25,12.5,6.25,3.13, r13 dGuo alone): 1.0 | Growth inhibition (MTT), dGuo 0.09 mM (U937, dGuo 0.09 mM for 0 H, STSP for 17 H, total 17 H, STSP nM: 100,50,25,12.5,6.25,3.13, r14 dGuo alone): 57% | Combined results ratio (CRR), dGuo 3.00 mM (U937, dGuo 3.00 mM for 0 H, STSP for 17 H, total 17 H, STSP nM: 100,50,25,12.5,6.25,3.13, r13 dGuo alone): 1.0 | Growth inhibition (MTT), dGuo 3.00 mM (U937, dGuo 3.00 mM for 0 H, STSP for 17 H, total 17 H, STSP nM: 100,50,25,12.5,6.25,3.13, r14 dGuo alone): 93% | Combined results ratio (CRR), dGuo […] (U937, dGuo […] for 0 H, STSP for 17 H, total 17 H, STSP nM: 100,50,25,12.5,6.25,3.13, r13 dGuo alone): 1.0 | Combined results ratio [1]: 1.0 | Growth inhibition (MTT) [1]: 2% | Combined results ratio [2]: 1.0 | Growth inhibition (MTT) [2]: 2% | Combined results ratio (U937, total 17 H, dGuo 0.02 mM): 1.0 | Growth inhibition (MTT) (U937, total 17 H, dGuo 0.02 mM): 10% | Combined results ratio (U937, total 17 H, dGuo 0.06 mM): 1.0 | Growth inhibition (MTT) (U937, total 17 H, dGuo 0.06 mM): 25% | Combined results ratio (U937, total 17 H, dGuo 0.09 mM): 1.0 | Growth inhibition (MTT) (U937, total 17 H, dGuo 0.09 mM): 57% | Combined results ratio (U937, total 17 H, dGuo 3.00 mM): 1.0 | Growth inhibition (MTT) (U937, total 17 H, dGuo 3.00 mM): 93%

O=c1[nH]c(=O)n([C@H]2C[C@H](O)[C@@H](CO)O2)cc1F [floxuridine]
Potentiation of DNA damage by STSP as RA (U937, concentrations less than IC40, STSP as the TCI): proved successful in potentiating DNA damage by STSP

bleomycin
Combined results ratio, bleomycin only (MTT #523, total 20 Hours, bleomycin 16 Hours, no STSP, bleomycin mU by row: r9 160, r10 80, r11 40, r12 20, r13 10, r14 5): 1.0
